Experimental data taken from patent US20090017042A1, “PROCESS FOR THE DETERMINATION OF THE PRIMARY STRUCTURE OF THE MESSENGER RNA CODING FOR THE HUMAN RECOMBINANT ENDOOLIGOPEPTIDASE A (HEOPA) [AF217798]” (priority 2002, published 2009).
Values joined by “and” are separate entries in the source; they are usually repeats but may differ in a detail not shown here. Identical values can stand only once.

What was measured:
[1] = biological target: T1, rEOPA (recombinant endooligopeptidase A) (Homo sapiens, UniProt Q9GZM8); conditions: state of the art; cited from earlier work
T1 construct: poly-histidine tag or anchor protein (e.g. GST) (N, cleaved yes); made in house; host or cells: Escherichia coli (DH5alpha, BL21(DE3) or similar), vector e.g. pProEx-HTc
T1 sequence (Q9GZM8 1-345): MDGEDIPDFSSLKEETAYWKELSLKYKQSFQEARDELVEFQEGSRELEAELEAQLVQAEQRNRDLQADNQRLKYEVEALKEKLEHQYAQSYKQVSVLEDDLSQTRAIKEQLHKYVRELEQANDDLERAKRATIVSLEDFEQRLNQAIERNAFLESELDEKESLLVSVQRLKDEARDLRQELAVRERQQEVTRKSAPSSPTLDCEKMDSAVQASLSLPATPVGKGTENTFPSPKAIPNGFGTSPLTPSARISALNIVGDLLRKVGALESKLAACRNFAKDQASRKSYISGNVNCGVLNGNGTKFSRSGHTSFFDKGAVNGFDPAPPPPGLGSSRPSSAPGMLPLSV

[2] = biological target: T1, rEOPA (recombinant endooligopeptidase A); assay: Inhibition of the catalytic activity of recombinant EOPA (kinetic assay, quenched fluorescence peptide substrate or HPLC); type: biochemical; conditions: for Ki: rEOPA
Source text: Polyclonal antibodies were generated in rats, mice and rabbits, using the purified natural EOPA or the active recombinant EOPA, expressed in bacteria, specifically in Escherichia coli, for the immunization. Male Balb-C mice, 7 to 8 weeks old, and weighing between 18 and 22 g were immunized with purified natural human EOPA, or catalytically active recombinant enzyme. For each of the four immunizations, 2.mμ.g of the purified protein or 3.mμ.g of the recombinant protein, absorbed on aluminum hydroxide [Al(OH)3] were injected intradermically, in weekly intervals. Blood samples were collected one week after the last immunization, and the serum was stored at −20° C. The antiserum titer was evaluated by ELISA, using the appropriate antigen. The anti-catalytic activity of the obtained antiserum was evaluated by HPLC or fluorimetrically, using the quenched fluorescent peptides substrates. Before use, the antiserum was pre-heated at 55° C., for 5 minutes, in order to eliminate any contaminating peptidase activity. […] Using this antibody, it was possible to discriminate the activity of the EOPA from functionally similar, but not homologous enzymes, such as the TOP and the NL, which are also present in animal tissues and cells lineages.
Kinetic assays using natural peptide substrates like bradykinin, neurotensin and opioid peptides, composed by 9 to 13 amino acid residues, were essential for the discovery and characterization of the EOPA in our laboratory (see the summary of this literature in Camargo et al., 1994). Since 1990, we have developed peptide substrates derived from natural substrates with quenched fluorescence, standardizing the characterization of this enzyme, simplifying and reducing the costs, and making the characterization of the kinetic properties of the EOPA more reliable (Juliano et al., 1990). The peptide substrates with quenched fluorescence (qf) used have the radical Abz (ortho-aminobenzoic acid) at the amino terminus of the peptide, and the EDDnp [N-(2,4-dinitrophenyl)ethylenediamine] at the carboxyl terminus of the peptide. […]

neurolysin (NL) = neurolysin (NL) (Homo sapiens, UniProt Q9BYT8); assay: Inhibition of neurolysin; type: biochemical
Sequence of neurolysin (NL) (Q9BYT8 38-704): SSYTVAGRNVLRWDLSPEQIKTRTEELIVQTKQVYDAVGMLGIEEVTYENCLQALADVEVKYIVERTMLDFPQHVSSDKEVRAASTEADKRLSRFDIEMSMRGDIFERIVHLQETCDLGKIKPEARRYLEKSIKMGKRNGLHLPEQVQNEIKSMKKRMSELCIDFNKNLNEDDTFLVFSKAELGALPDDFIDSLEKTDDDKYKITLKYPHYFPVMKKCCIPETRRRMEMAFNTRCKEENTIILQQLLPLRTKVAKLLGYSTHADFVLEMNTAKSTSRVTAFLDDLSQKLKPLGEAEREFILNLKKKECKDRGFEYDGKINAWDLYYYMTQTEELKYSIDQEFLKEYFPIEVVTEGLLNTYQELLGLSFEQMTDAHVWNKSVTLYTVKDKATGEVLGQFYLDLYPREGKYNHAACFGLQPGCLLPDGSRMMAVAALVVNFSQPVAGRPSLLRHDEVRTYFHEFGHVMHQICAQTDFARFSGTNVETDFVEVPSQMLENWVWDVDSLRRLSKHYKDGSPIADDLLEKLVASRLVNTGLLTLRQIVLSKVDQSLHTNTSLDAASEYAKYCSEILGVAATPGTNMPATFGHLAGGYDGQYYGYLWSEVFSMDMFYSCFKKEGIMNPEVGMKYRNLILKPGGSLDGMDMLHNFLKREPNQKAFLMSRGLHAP

[3] = tested on: neuronal precursor cells from embryonic stem cells (USP-1 lineage); assay: Treatment of neuronal precursor cells differentiated from embryonic stem cells with EOPA inhibitor; type: cell-based; conditions: neuronal precursor cells treated with the inhibitor
Description: The undifferentiated embryonic stem cells (USP-1 lineage) were cultured in medium containing: DMEM, supplemented with 15% of bovine fetal serum, […] of penicillin/streptomycin and 2 mM of L-glutamine, 1% of non-essential amino acids, 10^−4 M of monothioglicerol, and LIF (Leukemia Inhibitory Factor), in a final concentration of 1,000 units/ml. All the undifferentiated stem cells culture was maintained over a primary culture of previously irradiated murine fibroblasts (Neo Mef2). The differentiation was done after the formation of the embryoid bodies, where 750 cells were maintained in 20 μl of the culture medium drops over a Petri dish, during four days at 37° C., under 5% carbonic gas (during this period the cells form the cellular aggregates known as embryoid bodies). […] After completing the differentiation of the stem cells, the differentiated cells were counted and photographed using a confocal microscopy. A population of cells differentiated into neurons was obtained following the protocol described above, and the influence of the inhibition of the EOPA catalytic activity during the differentiation and maturation process of these neurons was analyzed after the treatment of these cells with the inhibitor JA2.

[4] = biological target: thimet oligopeptidase (TOP) (Homo sapiens, UniProt P52888); conditions: cited from earlier work
Sequence of thimet oligopeptidase (TOP) (P52888 whole entry, species assumed): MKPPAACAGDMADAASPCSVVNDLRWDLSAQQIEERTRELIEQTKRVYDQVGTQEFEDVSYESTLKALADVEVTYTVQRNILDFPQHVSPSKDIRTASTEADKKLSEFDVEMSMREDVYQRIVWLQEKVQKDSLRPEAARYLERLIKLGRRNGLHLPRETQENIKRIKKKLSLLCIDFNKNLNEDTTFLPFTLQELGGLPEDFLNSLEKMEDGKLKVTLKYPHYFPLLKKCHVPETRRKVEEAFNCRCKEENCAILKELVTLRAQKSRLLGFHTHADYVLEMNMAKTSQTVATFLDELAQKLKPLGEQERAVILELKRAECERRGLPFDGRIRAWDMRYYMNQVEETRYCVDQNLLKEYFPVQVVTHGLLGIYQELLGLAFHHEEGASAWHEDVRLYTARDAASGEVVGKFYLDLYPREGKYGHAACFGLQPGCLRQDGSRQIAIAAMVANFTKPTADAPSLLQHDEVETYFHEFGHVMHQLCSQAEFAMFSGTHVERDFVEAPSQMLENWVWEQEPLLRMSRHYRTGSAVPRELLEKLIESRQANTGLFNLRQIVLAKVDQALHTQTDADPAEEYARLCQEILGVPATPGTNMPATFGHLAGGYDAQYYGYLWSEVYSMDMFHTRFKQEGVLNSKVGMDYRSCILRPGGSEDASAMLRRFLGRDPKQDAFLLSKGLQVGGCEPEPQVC

Ki [2] | Compound | effect of thiol agents on EOPA activity (kinetic assays) [1] | further results
 | O[C@H](CS)[C@H](O)CS (racemic) [dithiothreitol (DTT), dithiothreitol] | activated | 
 | O=C(O)c1cc(SSc2ccc([N+](=O)[O-])c(C(=O)O)c2)ccc1[N+](=O)[O-] [5′-dithio-bis-(2-nitrobenzoic acid)] | inhibited | 
 | O=C(O)CN(CCN(CC(=O)O)CC(=O)O)CC(=O)O [EDTA] |  | sensitivity of EOPA to metalloprotease-directed agents [2]: insensible
~17 nM and 17 nM | C[C@H](NC(CCc1ccccc1)C(=O)O)C(=O)NC(C)(C)C(=O)N[C@@H](Cc1ccc(O)cc1)C(=O)Nc1ccc(C(=O)O)cc1 (stereo partly shown) [JA2] |  | Ki (neurolysin (NL)): > 200 nM; differentiation of the cells [3]: abnormal differentiation of the cells; neurites formation [3]: inhibition of the neurites formation; Ki [4]: 23 nM
~17 nM | C[C@H](NC(=O)[C@H](C)NC(CCc1ccccc1)C(=O)O)C(=O)N[C@@H](Cc1ccc(O)cc1)C(=O)Nc1ccc(C(=O)O)cc1 (stereo partly shown) [cFP] |  | 
 | O=C(O)c1cc[c]([Hg][Cl])cc1 [p-chloromercuribenzoate (PCMB), p-chloromercuribenzoate] | inhibited | 
